Among the test systems are SK-MEL-2; Hs-578T; MCF7; TK-10; SN12C; SF-539; SK-OV-3; MOLT-4; ACHN; SK-MEL-28; CAKI-1; SR; HCC 2998; SF-295; NCI/ADR-RES; UACC-62; MDA-MB-231; MDA-N; U-251; LOX IMVI.
Holding throughout (test): NCI anticancer screen, dose series, 48 h

Structures are written as SMILES.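 1) Cells in 96-well plates. 2) Compound, 48 h, 5 concentrations. 3) Linear interpolation between surrounding doses. 4) Unreached endpoint = highest concentration. GI50: concentration for 50% inhibition of growth.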 Calls of active or inactive are those of the source. Rule as the data show it: active = GI50 up to about 1.1 µM and inactive = higher. Bounds are passed on as bounds.

As to `CCOC(=O)C(NC(=O)c1ccccc1)(Nc1ccc(S(=O)(=O)Nc2ncccn2)cc1)C(F)(F)F` (stereo not given), the GI50 in the assay with SK-MEL-2, in the assay on Hs-578T, in the assay with MCF7, with TK-10, in the assay on SN12C and in the assay with SF-539 was > 100 µM (inactive) each time. Further, the GI50 in the assay on SK-OV-3 is 0.513 µM (active); in the assay on MOLT-4 it was > 100 µM (inactive); in the assay with ACHN, > 100 µM (inactive); with SK-MEL-28 it was > 100 µM (inactive); in the assay with CAKI-1 it was > 100 µM (inactive); with SR it was > 100 µM (inactive). Besides, the GI50 in the assay on HCC 2998, in the assay on SF-295, with NCI/ADR-RES, in the assay with UACC-62, in the assay on MDA-MB-231 and in the assay with MDA-N was > 100 µM (inactive) throughout. Moreover, the GI50 in the assay on U-251 and in the assay on LOX IMVI was > 100 µM (inactive) in each case.
With `CC(C)/C=C1\CCC(CN(C)C)C1=O` (stereo not given), the GI50 with SK-MEL-2 is 7.05 µM (inactive); with Hs-578T, 1.86 µM (inactive); in the assay with MCF7 it was 0.313 µM (active); in the assay on TK-10, 2.09 µM (inactive); with SN12C, 2.21 µM (inactive); in the assay on SF-539 it was 7.29 µM (inactive). The GI50 was 18.3 µM (inactive) with SK-OV-3; 1.07 µM (active) in the assay with MOLT-4; 5.82 µM (inactive) in the assay on ACHN; 2.21 µM (inactive) with SK-MEL-28; 1.32 µM (inactive) with CAKI-1; 0.951 µM (active) with SR. The GI50 is 7.03 µM (inactive) in the assay with HCC 2998; 16.6 µM (inactive) in the assay with SF-295; 3 µM (inactive) in the assay with NCI/ADR-RES; 16.8 µM (inactive) in the assay with UACC-62; 1.42 µM (inactive) in the assay on MDA-MB-231; 2.92 µM (inactive) in the assay with MDA-N. Besides, the GI50 in the assay with U-251 was 18.3 µM (inactive); in the assay on LOX IMVI it was 4.99 µM (inactive).
On to `N#CC(C#N)=Cn1c(=S)[nH]c2ccc([N+](=O)[O-])cc21`, for which the GI50 in the assay on SK-MEL-2 is > 100 µM (inactive); in the assay with Hs-578T it was 60.8 µM (inactive); in the assay with MCF7, > 100 µM (inactive); with TK-10, > 100 µM (inactive); in the assay with SN12C, > 100 µM (inactive); in the assay with SF-539, > 100 µM (inactive). The GI50 with SK-OV-3 is > 100 µM (inactive); in the assay on MOLT-4 it was > 100 µM (inactive); in the assay on ACHN, > 100 µM (inactive); in the assay with SK-MEL-28, > 100 µM (inactive); with CAKI-1, 71.4 µM (inactive); with SR it was > 100 µM (inactive). Besides, the GI50 was > 100 µM (inactive) in the assay with HCC 2998; > 100 µM (inactive) in the assay with SF-295; > 100 µM (inactive) in the assay with NCI/ADR-RES; > 100 µM (inactive) in the assay with UACC-62; 68.7 µM (inactive) in the assay with MDA-MB-231; > 100 µM (inactive) with MDA-N. For the same compound, the GI50 with U-251 and with LOX IMVI was > 100 µM (inactive) throughout.
As for `Cc1ccc(C(=O)C#Cc2cn(C3CC(O)C(CO)O3)c(=O)[nH]c2=O)cc1` (stereo not given), the GI50 in the assay on SK-MEL-2 was > 100 µM (inactive); in the assay with Hs-578T, 95.1 µM (inactive); with MCF7, 47.6 µM (inactive); in the assay on TK-10 it was > 100 µM (inactive); in the assay on SN12C it was > 100 µM (inactive); in the assay on SF-539, > 100 µM (inactive). In addition, the GI50 with SK-OV-3 is > 100 µM (inactive); in the assay on ACHN, > 100 µM (inactive); in the assay with SK-MEL-28, > 100 µM (inactive); with CAKI-1, 90.2 µM (inactive); in the assay on SR it was 35.2 µM (inactive); with HCC 2998 it was > 100 µM (inactive). Moreover, the GI50 in the assay with SF-295, with NCI/ADR-RES, in the assay on UACC-62, in the assay on MDA-MB-231, with MDA-N and in the assay on U-251 was > 100 µM (inactive) throughout. Besides, the GI50 in the assay on LOX IMVI was 95.9 µM (inactive).
Consider `CN(/N=C/c1ccccn1)C1=NCCN1`, for which the GI50 in the assay on SK-MEL-2, with Hs-578T, in the assay on MCF7, with SF-539, with SK-OV-3 and in the assay on MOLT-4 was > 100 µM (inactive) each time. For the same compound, the GI50 in the assay on ACHN, in the assay on SK-MEL-28, in the assay with CAKI-1, in the assay on SR, with HCC 2998 and with SF-295 was > 100 µM (inactive) throughout. Besides, the GI50 in the assay on NCI/ADR-RES, with UACC-62, with MDA-MB-231, in the assay on MDA-N, in the assay on U-251 and with LOX IMVI was > 100 µM (inactive) in each case.
Consider `COc1ccc2oc(OC)c(CC=C(C)C)c(=O)c2c1C`, for which the GI50 in the assay on SK-MEL-2, in the assay on Hs-578T, with MCF7, in the assay with TK-10, in the assay on SN12C and in the assay with SF-539 was > 100 µM (inactive) in each case. In addition, the GI50 in the assay on SK-OV-3, in the assay with MOLT-4, with ACHN, with SK-MEL-28, with CAKI-1 and in the assay on SR was > 100 µM (inactive) in each case. For the same compound, the GI50 in the assay with HCC 2998, in the assay with SF-295, with NCI/ADR-RES, with UACC-62, with MDA-MB-231 and in the assay with MDA-N was > 100 µM (inactive) each time. In addition, the GI50 in the assay with U-251 and in the assay with LOX IMVI was > 100 µM (inactive) in each case.
For the compound `COc1ccc(-c2cc(C3CC3)nc(SCC(=O)O)c2C#N)cc1`, the GI50 in the assay on SK-MEL-2 is > 100 µM (inactive); in the assay with Hs-578T it was 84.3 µM (inactive); with MCF7, 94.4 µM (inactive); in the assay with TK-10, > 100 µM (inactive); in the assay on SN12C it was > 100 µM (inactive); in the assay with SF-539, > 100 µM (inactive). The GI50 in the assay on SK-OV-3 was 56.2 µM (inactive); with MOLT-4, 60.3 µM (inactive); in the assay on ACHN it was > 100 µM (inactive); with SK-MEL-28 it was > 100 µM (inactive); with CAKI-1 it was > 100 µM (inactive); in the assay on SR, 55.8 µM (inactive). Also, the GI50 was > 100 µM (inactive) with HCC 2998; 60.3 µM (inactive) in the assay on SF-295; > 100 µM (inactive) in the assay with NCI/ADR-RES; > 100 µM (inactive) in the assay with UACC-62; > 100 µM (inactive) in the assay on MDA-MB-231; > 100 µM (inactive) in the assay on MDA-N. In addition, the GI50 in the assay on U-251 was 58.9 µM (inactive); in the assay with LOX IMVI, 36.6 µM (inactive).
As for `COC1=C(Cl)C(=O)c2c(O)ccc(O)c2C1=O`, the GI50 in the assay with SK-MEL-2 was 0.499 µM (active); in the assay with Hs-578T it was 1.11 µM (active); with MCF7 it was 1.04 µM (active); in the assay on TK-10 it was 1.05 µM (active); in the assay with SN12C, 1.31 µM (inactive); in the assay on SF-539 it was 0.578 µM (active). Further, the GI50 in the assay on SK-OV-3 was 16 µM (inactive); in the assay on MOLT-4, 0.0372 µM (active); in the assay on ACHN it was 1.02 µM (active); with SK-MEL-28, 2.58 µM (inactive); in the assay with CAKI-1, 0.541 µM (active); in the assay on SR, 0.227 µM (active). Besides, the GI50 was 13 µM (inactive) in the assay with HCC 2998; 6.43 µM (inactive) in the assay with SF-295; 0.843 µM (active) with NCI/ADR-RES; 1.07 µM (active) in the assay on UACC-62; 1.66 µM (inactive) in the assay with MDA-MB-231; 2.2 µM (inactive) with MDA-N. The GI50 in the assay on U-251 was 3.53 µM (inactive); in the assay with LOX IMVI, 1.38 µM (inactive).
For the compound `CCOC(=O)c1nc2ccc(C(F)(F)F)cc2[nH]c1=O`, the GI50 in the assay with SK-MEL-2 was > 100 µM (inactive); with Hs-578T, 82 µM (inactive); with MCF7, > 100 µM (inactive); in the assay with TK-10, > 100 µM (inactive); with SN12C, > 100 µM (inactive); in the assay with SF-539, > 100 µM (inactive). The GI50 in the assay on SK-OV-3, in the assay on MOLT-4, with ACHN, in the assay on SK-MEL-28, in the assay on CAKI-1 and with SR was > 100 µM (inactive) each time. Moreover, the GI50 in the assay on HCC 2998, with SF-295, in the assay with NCI/ADR-RES, in the assay on UACC-62, in the assay with MDA-MB-231 and in the assay with MDA-N was > 100 µM (inactive) each time. The GI50 with U-251 and in the assay on LOX IMVI was > 100 µM (inactive) throughout.
As to `CCNCCNc1c2ccccc2nc2ccccc12`, the GI50 with SK-MEL-2 was 1.51 µM (inactive); in the assay on Hs-578T, 1.98 µM (inactive); in the assay with MCF7, 0.565 µM (active); with TK-10, 2.91 µM (inactive); with SN12C it was 0.938 µM (active); in the assay on SF-539 it was 0.745 µM (active). The GI50 in the assay on SK-OV-3 was 1.07 µM (active); with MOLT-4, 0.54 µM (active); with ACHN it was 0.366 µM (active); in the assay with CAKI-1, 0.698 µM (active); with SR, 0.594 µM (active); in the assay on HCC 2998, 0.127 µM (active). In addition, the GI50 was 1.21 µM (inactive) in the assay on SF-295; 2.72 µM (inactive) with NCI/ADR-RES; 1.49 µM (inactive) in the assay on UACC-62; 1.24 µM (inactive) in the assay with MDA-MB-231; 1.28 µM (inactive) in the assay on MDA-N; 0.743 µM (active) in the assay on LOX IMVI.

For the origin of these results see ChEMBL document CHEMBL1201862, “PubChem BioAssay data set” (2004).
